Data published in patent publication US20050215548A1 (Cyclacel Limited, priority 2002, published 2005).

Assays:
[1] = test system: AGS; test: 72-h MTT cytotoxicity assay, AGS; format: cell-based; settings: Homo sapiens, 72-h MTT, Table 1, read-out: IC50 Anti-proliferative effect on cell line AGS
Experimental: (§1) The fluorescence polarisation competitive HDM2 binding assay described in Example 3 was used. Furthermore, the anti-proliferative potency of the compounds against three human tumour cell lines with different genetic make-up was also determined. […] The cell lines used were as follows: AGS, gastric adenocarcinoma, wild-type p53; H1299, large cell lung carcinoma, p53 null, low HDM2; SJSA-1, primitive multipotential bone sarcoma, wild-type p53, overexpressed HDM2.
(§2) Representative bisarylsulfonamide compounds were tested on a panel of transformed and non-transformed human cell lines, using a standard 72-h MTT cytotoxicity assay [Haselsberger K et al, ibid].

[2] = test system: H1299; test: 72-h MTT cytotoxicity assay, H1299; format: cell-based; settings: Homo sapiens, NCI-H1299; 72-h MTT; Table 1; read-out: IC50 Anti-proliferative effect on cell line H 1299
Experimental: as §1, §2

[3] = target: T1, HDM2 (Homo sapiens, UniProt Q00987); test: Fluorescence polarisation competitive HDM2 binding assay; settings: fluorescence polarisation format; Table 1; read-out: IC50 In vitro competitive HDM2 binding assay
T1 construct: Recombinant HDM2 (1.5 μg per well) in TBS-BSA buffer
How it was run: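 Recombinant HDM2 (1.5 μg/well) was preincubated 5 min at room temperature with serially diluted compound in 50 mM Tris pH 7.4, 150 mM NaCl, 0.1% BSA, 5% DMSO final. Fluorescein-labelled p53 peptide (0.2 μM) was then added for 45 min. Polarisation was read at 485/520 nm and IC50 derived from dose-response curves.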

[4] = test system: SJSA-1; test: 72-h MTT cytotoxicity assay, SJSA-1; format: cell-based; settings: Homo sapiens, SJSA-1; 72-h MTT; Table 1; read-out: IC50 Anti-proliferative effect on cell line SJSA-1
Experimental: as §1, §2

T1 sequence (Q00987 whole entry): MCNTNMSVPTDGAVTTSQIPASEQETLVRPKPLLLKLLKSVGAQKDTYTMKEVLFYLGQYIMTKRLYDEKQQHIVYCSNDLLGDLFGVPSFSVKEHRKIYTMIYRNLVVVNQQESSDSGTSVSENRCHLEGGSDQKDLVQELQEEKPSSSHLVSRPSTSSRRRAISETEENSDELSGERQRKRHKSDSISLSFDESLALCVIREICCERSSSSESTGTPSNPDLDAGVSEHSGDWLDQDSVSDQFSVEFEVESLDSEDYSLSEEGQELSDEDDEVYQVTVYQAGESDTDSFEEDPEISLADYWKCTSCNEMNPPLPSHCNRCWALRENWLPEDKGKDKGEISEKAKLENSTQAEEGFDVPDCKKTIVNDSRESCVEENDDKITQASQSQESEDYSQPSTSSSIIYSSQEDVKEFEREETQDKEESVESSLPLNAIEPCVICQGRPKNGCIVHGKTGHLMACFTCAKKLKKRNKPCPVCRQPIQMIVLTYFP

Row | IC50 [3] | Structure (SMILES) | IC50 [1] | IC50 [2] | IC50 [4]
1 | 278 ± 50 µM | O=S(=O)(Nc1cc(C(F)(F)F)cc(C(F)(F)F)c1)c1cnc(Cl)c(Br)c1 [Compound 42, 5-Bromo-6-chloropyridine-3-sulfonic acid (3,5-bis-trifluoromethylphenyl)amide] | 30 ± 7 µM | 32 ± 7 µM | 65 ± 18 µM
2 | 133 ± 11 µM | Cn1ncc(-c2ccc(S(=O)(=O)Nc3cc(C(F)(F)F)cc(C(F)(F)F)c3)s2)c1C(F)(F)F [Compound 43, 5-(1-Methyl-5-trifluoromethyl-1H-pyrazol-4-yl)-thiophene-2-sulfonic acid (3,5-bis-trifluoromethylphenyl)amide] | 20.9 ± 1 µM | 18 ± 0.8 µM | 33.7 ± 0.3 µM
3 | 25.4 ± 0.2 µM | O=[N+]([O-])c1cc(S(=O)(=O)Nc2cc(C(F)(F)F)cc(C(F)(F)F)c2)sc1Cl [Compound 44, 5-Chloro-4-nitrothiophene-2-sulfonic acid (3,5-bis-trifluoromethyl-phenyl)-amide] | 10 µM | 14 ± 2 µM | 19 ± 3 µM
4 | 3.5 ± 10 µM | O=[N+]([O-])c1cc(S(=O)(=O)N(Cc2ccc(C(F)(F)F)cc2)Cc2cccc(C(F)(F)F)c2)sc1Cl [Compound 75, 5-Chloro-4-nitro-thiophene-2-sulfonic acid (3-trifluoro-methyl-benzyl)-(4-trifluoromethyl-benzyl)-amide] | 9 µM | 16 µM | 18 µM

More lines, now with the values behind:

Row | Structure (SMILES) | IC50 [3] | IC50 [1] | IC50 [2] | IC50 [4]
5 | O=[N+]([O-])c1cc(S(=O)(=O)Nc2cc(Cl)cc(Cl)c2)ccc1Cl [Compound 47, 4-Chloro-N-(3,5-dichlorophenyl)-3-nitro-benzenesulfonamide] | 234 ± 37 µM | 23 ± 2 µM | 18 ± 8 µM | 37 ± 6 µM
6 | CN(c1ccc(Cl)cc1)S(=O)(=O)c1cc([N+](=O)[O-])c(Cl)s1 [Compound 51, 5-Chloro-4-nitrothiophene-2-sulfonic acid (4-chloro-phenyl)-methylamide] | 5.9 ± 0.7 µM | 11.3 ± 1 µM | 17.4 ± 3.8 µM | 15.6 µM
7 | CN(Cc1ccc(C(F)(F)F)cc1)S(=O)(=O)c1cc([N+](=O)[O-])c(Cl)s1 [Compound 52, 5-Chloro-4-nitrothiophene-2-sulfonic acid methyl-(4-trifluoromethylbenzyl)amide] | 10.7 ± 0.2 µM | 23.3 ± 1.4 µM | 28.5 ± 1.9 µM | 27.5 ± 1.3 µM
8 | O=[N+]([O-])c1cc(S(=O)(=O)NCc2ccc(Cl)cc2)sc1Cl [Compound 56, 5-Chloro-4-nitro-thiophene-2-sulfonic acid 4-chloro-benzylamide] | 24.8 ± 5.4 µM | 4.3 ± 0.6 µM | 6.3 ± 1.9 µM | 9.3 ± 2.7 µM
9 | O=[N+]([O-])c1cc(S(=O)(=O)N(Cc2cccc(C(F)(F)F)c2)c2ccc(Cl)cc2)sc1Cl [Compound 67, 5-Chloro-4-nitro-thiophene-2-sulfonic acid (4-chloro-phenyl)-(3-trifluoromethyl-benzyl)-amide] | 8.5 ± 3.2 µM | 6.7 ± 0.9 µM | 12 ± 1 µM | 11.8 ± 1.6 µM
10 | O=[N+]([O-])c1cc(S(=O)(=O)NCCc2c[nH]c3ccc(Cl)cc23)ccc1Cl [Compound 81, 4-Chloro-N-[2-(5-chloro-1H-indol-3-yl)-ethyl]-3-nitro-benzenesulfonamide] | 311 ± 21 µM | 29 ± 2 µM | 39 ± 6 µM | 51 ± 1 µM
11 | Cc1ccc(S(=O)(=O)NCCc2c[nH]c3ccc(Cl)cc23)cc1[N+](=O)[O-] [Compound 82, N-[2-(5-Chloro-1H-indol-3-yl)-ethyl]-4-methyl-3-nitro-benzenesulfonamide] | 338 ± 111 µM | 50 µM | 49 µM | 65 ± 4 µM
12 | O=[N+]([O-])c1ccc(NS(=O)(=O)c2cc(C(F)(F)F)cc(C(F)(F)F)c2)cc1Cl [Compound 105, N-(3-Chloro-4-nitro-phenyl)-3,5-bis-trifluoromethyl-benzenesulfonamide] | 153 ± 18 µM | 24 ± 3 µM | 25 ± 1 µM | 37 ± 18 µM
